Experimental data as given in the supplement of paper PMC6045584.
± gives the standard deviation of the averaged measurements.

What was measured:
VORINOSTAT = compound: O=C(CCCCCCC(=O)Nc1ccccc1)NO [VORINOSTAT]; experiment: surviving fraction relative to DMSO-only wells; higher = less growth inhibition; conditions: exposure time: 5 days
How it was run: (§1)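 For each tumour cell line, log-phase cells were put into 384-well plates at 250–500 cells per well, then after 24 hours exposed continuously for five days to inhibitors at 0.5, 1, 5, 10, 50, 100, 500 and 1000 nM. Viability was assessed by CellTiter-Glo luminescence, with surviving fraction expressed relative to the median of DMSO-only wells. Lines were screened three times and retained only if replicate Pearson r exceeded 0.7 and median Z' exceeded 0.3.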

IMATINIB = compound: Cc1ccc(NC(=O)c2ccc(CN3CCN(C)CC3)cc2)cc1Nc1nccc(-c2cccnc2)n1 [IMATINIB]; experiment: as above; conditions: exposure time: 5 days
How it was run: as §1

Row | Test System | surviving fraction (VORINOSTAT; 0.5 nM) | surviving fraction (VORINOSTAT; 1 nM) | surviving fraction (VORINOSTAT; 5 nM) | surviving fraction (VORINOSTAT; 10 nM) | surviving fraction (VORINOSTAT; 50 nM) | surviving fraction (VORINOSTAT; 100 nM) | surviving fraction (VORINOSTAT; 500 nM) | surviving fraction (VORINOSTAT; 1000 nM) | surviving fraction (IMATINIB; 0.5 nM) | surviving fraction (IMATINIB; 1 nM) | surviving fraction (IMATINIB; 5 nM) | surviving fraction (IMATINIB; 10 nM) | surviving fraction (IMATINIB; 50 nM) | surviving fraction (IMATINIB; 100 nM) | surviving fraction (IMATINIB; 500 nM) | surviving fraction (IMATINIB; 1000 nM)
1 | RDES SOFT TISSUE | 1.21 ± 0.099 | 1.19 ± 0.13 | 1.2 ± 0.029 | 1.1 ± 0.02 | 1.05 ± 0.073 | 1.11 ± 0.12 | 0.831 ± 0.13 | 1.12 ± 0.39 | 1.37 ± 0.084 | 1.45 ± 0.048 | 1.21 ± 0.1 | 1.22 ± 0.019 | 1.12 ± 0.1 | 1.21 ± 0.1 | 1.24 ± 0.13 | 1.18 ± 0.082
2 | S68 BREAST | 0.723 ± 0.22 | 0.82 ± 0.18 | 0.91 ± 0.38 | 0.998 ± 0.21 | 1.22 ± 0.28 | 1.07 ± 0.17 | 0.73 ± 0.19 | 0.384 ± 0.018 | 0.783 ± 0.22 | 0.996 ± 0.18 | 1.13 ± 0.17 | – | 1.25 ± 0.47 | 1.28 ± 0.29 | 1.11 ± 0.28 | 0.868 ± 0.081
3 | SAOS2 BONE | 1.09 ± 0.027 | 1.07 ± 0.047 | 1.09 ± 0.07 | 0.997 ± 0.088 | 1.24 ± 0.021 | 1.06 ± 0.048 | 0.91 ± 0.053 | 0.73 ± 0.017 | 1.14 ± 0.031 | 1.14 ± 0.056 | – | 1.22 ± 0.063 | 1.22 ± 0.079 | 1.2 ± 0.075 | 1.16 ± 0.029 | 1.17 ± 0.097
4 | SCC003 HEADNECK | 1 ± 0.086 | 1.01 ± 0.15 | 1.02 ± 0.1 | 1.01 ± 0.093 | 1.09 ± 0.067 | 1.12 ± 0.091 | 1.14 ± 0.12 | 0.847 ± 0.16 | 1.1 ± 0.07 | 1.1 ± 0.037 | 1.15 ± 0.036 | – | 1.09 ± 0.033 | 1.18 ± 0.045 | 1.13 ± 0.062 | 1.12 ± 0.075
5 | SCC36 HEADNECK | 1.01 ± 0.084 | 0.977 ± 0.073 | 1.1 ± 0.024 | 1.06 ± 0.082 | 1.12 ± 0.1 | 1.14 ± 0.12 | 0.677 ± 0.038 | 0.589 ± 0.054 | 1.03 ± 0.11 | 1.04 ± 0.18 | 1.09 ± 0.12 | – | 1.11 ± 0.024 | – | 0.886 ± 0.066 | –
6 | SCC47 HEADNECK | 1.03 ± 0.04 | 1.03 ± 0.077 | 1.12 ± 0.034 | 1.02 ± 0.016 | 1.05 ± 0.023 | 1.1 ± 0.044 | 1.02 ± 0.083 | 0.897 ± 0.028 | 1.12 ± 0.017 | 1.2 ± 0.065 | 1.18 ± 0.072 | 1.19 ± 0.013 | 1.19 ± 0.025 | 1.25 ± 0.1 | 1.22 ± 0.11 | 1.21 ± 0.028
7 | SCC90 HEADNECK | 1.13 ± 0.3 | 0.999 ± 0.1 | 1.13 ± 0.19 | 1.03 ± 0.1 | 1 ± 0.046 | 0.89 ± 0.089 | 0.689 ± 0.012 | 0.547 ± 0.0096 | – | – | 1.07 ± 0.011 | 1.01 ± 0.073 | 1.17 ± 0.076 | 1.14 ± 0.08 | 1.17 ± 0.067 | 1.26 ± 0.082
8 | SG27 HEADNECK | 1.22 ± 0.15 | 1.05 ± 0.089 | 1.01 ± 0.13 | 1.08 ± 0.048 | 0.989 ± 0.1 | 0.955 ± 0.088 | 0.824 ± 0.097 | 0.755 ± 0.048 | – | – | 1.02 ± 0.16 | 1.13 ± 0.088 | 1.01 ± 0.079 | 1.17 ± 0.21 | 1.09 ± 0.18 | 1.14 ± 0.068
9 | SG28 HEADNECK | 1.11 ± 0.14 | 1.16 ± 0.17 | 1.066 ± 0.0025 | 1.09 ± 0.018 | 1.03 ± 0.073 | 1.09 ± 0.032 | 0.998 ± 0.081 | 0.809 ± 0.11 | 1.25 ± 0.093 | 1.11 ± 0.12 | – | – | – | – | 1.18 ± 0.11 | 1.14 ± 0.096
